Data on one molecule can be found in patent US10683525B2, “Method for producing 2-O-glyceryl-alpha-D-glucopyranoside” (Technische Universität Graz, priority 2006, dated 2020).

The subject of the assay is mannitol dehydrogenase, MDH. Put plainly: Stabilization of proteins during freeze drying. Type of assay: biochemical. To be noted: MDH 0.8 mg/ml, 20-1500 mM αGG in 100 mM Tris/HCl buffer pH 7.0, lyophilized over-night and redissolved; irrespective of the added αGG concentration; 2% without any stabilizer. As to the method:
The protein of interest (e.g. mannitol dehydrogenase, MDH) was incubated at a concentration of 0.8 mg/ml in the presence of 0, 20, 50, 100, 500, 1000 or 1500 mM αGG in 100 mM Tris/HCl buffer, pH 7.0. The samples were lyophilized over-night and dissolved in the same buffer again. The specific enzyme activity was determined, using appropriate assays for the corresponding enzyme as described elsewhere (Slatner M. et al., Biochemistry 38: 10489-10498), before and after freeze drying. Without any stabilizer added the enzymatic activity of MDH dropped down to 2% after freeze drying, whereas αGG is able to maintain enzymatic activity up to 48% irrespective of the added αGG concentration.

Regarding `OCC(CO)O[C@H]1O[C@H](CO)[C@@H](O)[C@H](O)[C@H]1O` [αGG, 2-O-glyceryl-α-D-glucopyranoside], the “enzymatic activity of MDH maintained after freeze drying” value is “up to 48%”.
